Source: PubChem BioAssay (NCI)
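The compound was tested at five concentrations on cells cultured in 96-well plates, with a 48-hour exposure period. TGI is the concentration that stops growth completely.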

What was measured:
Assay in all cases: NCI anticancer screen, dose series, 48 h
COLO 205 colon = tested on: COLO 205 colon
MOLT-4 leukemia = tested on: MOLT-4 leukemia
KM12 colon = tested on: KM12 colon
CCRF-CEM leukemia = tested on: CCRF-CEM leukemia
786-0 renal = tested on: 786-0 renal
HOP-92 NSCLC = tested on: HOP-92 NSCLC
A498 renal = tested on: A498 renal
A549 NSCLC = tested on: A549 NSCLC
SK-MEL-5 melanoma = tested on: SK-MEL-5 melanoma
HS 578T breast = tested on: HS 578T breast

Row | Compound | TGI (COLO 205 colon) | TGI (MOLT-4 leukemia) | TGI (KM12 colon) | TGI (CCRF-CEM leukemia) | TGI (786-0 renal) | TGI (HOP-92 NSCLC) | TGI (A498 renal) | TGI (A549 NSCLC) | TGI (SK-MEL-5 melanoma) | TGI (HS 578T breast)
1 | COc1ccc(N2C(=O)C3c4[nH]c5ccccc5c4C4c5ccccc5CC4C3C2=O)cc1 (stereo unspecified) | > 100 µM | > 100 µM | > 100 µM | > 100 µM | > 100 µM | > 100 µM | > 100 µM | > 100 µM |  | 
2 | N#CCc1nc2cc(C(F)(F)F)ccc2s1 | > 100 µM | > 100 µM | > 100 µM |  | > 100 µM | 48.1 µM | > 100 µM |  | > 100 µM | 
3 | CC(C)C1=C(Cc2ccccc2)C(=O)O/C1=C\c1ccc(O)c(Cl)c1 | 34.6 µM | 28.1 µM | 32 µM | 46.8 µM | 30.5 µM |  | 31.4 µM | 28.4 µM | 31.2 µM | 33.9 µM
4 | COc1cc(C(O)C(=O)c2cnc3cc([N+](=O)[O-])ccc3n2)ccc1O (stereo unspecified) | > 100 µM | > 100 µM | > 100 µM | > 100 µM | > 100 µM |  | > 100 µM | > 100 µM | > 100 µM | 
5 | C=CCOCn1ccc(N)nc1=O | > 100 µM | > 100 µM | > 100 µM | > 100 µM | > 100 µM |  |  | > 100 µM | > 100 µM | > 100 µM
6 | Cc1ccc(NC(=O)/C(=N/NC(=O)C[N+](C)(C)C)c2nc3ccccc3[nH]c2=O)cc1 | > 100 µM | > 100 µM |  |  | > 100 µM | > 100 µM | > 100 µM | > 100 µM | > 100 µM | 
7 | C[N+]1([O-])[C@H]2CC(OC(=O)[C@H](CO)c3ccccc3)C[C@H]1[C@H]1O[C@H]12 (stereo partly specified) | > 100 µM | > 100 µM | > 100 µM | > 100 µM | > 100 µM |  | > 100 µM | > 100 µM | > 100 µM | > 100 µM
8 | Cn1cnc(SC2=C3C(=O)C=C4S[C@H]5C[C@]42c2c(c(O)c4c6c2=[N+]3CCC=6C=N4)N5)c1CC(N)C(=O)O (stereo partly specified) | 4.44 µM | 33.7 µM | 37.8 µM | 45.9 µM | 59.7 µM | 34.5 µM | 36.5 µM | 56.7 µM | 26.4 µM | 
9 | COc1cc2[nH]c(=O)c3cc(C)cc4c(Cl)nc(c1OC)c2c43 | > 100 µM | > 100 µM | > 100 µM | > 100 µM | > 100 µM | > 100 µM |  | > 100 µM | > 100 µM | 
10 | O=C(Nc1ccc(Sc2ccc(N=Nc3c(O)c(S(=O)(=O)O)cc4cc(S(=O)(=O)O)ccc34)cc2)cc1)c1ccc(N=Nc2c(O)c(S(=O)(=O)O)cc3cc(S(=O)(=O)O)ccc23)cc1 | 40.2 µM | 36.8 µM | > 100 µM | 64.3 µM | > 100 µM | 92.4 µM | > 100 µM | > 100 µM | 53.9 µM | 
11 | COc1ccc(-c2nc(-c3cnccn3)n(Cc3ccccc3)n2)cc1 | > 100 µM | > 100 µM | > 100 µM | > 100 µM | > 100 µM | > 100 µM |  | > 100 µM | > 100 µM | 
12 | O=C1CC(C(COCc2ccccc2)OCc2ccccc2)CC(=O)N1 (stereo unspecified) |  | > 100 µM | > 100 µM | > 100 µM | > 100 µM | > 100 µM |  | > 100 µM | > 100 µM | > 100 µM
13 | C[C@]12CC[C@H](O)CC1=CC[C@@H]1[C@@H]2CC[C@]2(C)C(=O)/C(=C/c3ccc([N+](=O)[O-])cc3)C[C@@H]12 |  | > 100 µM | > 100 µM | > 100 µM | 10.8 µM | 22.6 µM | 30.4 µM | 29.8 µM | 43.5 µM | 29.5 µM
14 | CC1CCOc2ccc(cc2)C=Nc2ccc(cc2)-c2ccc(cc2)N=Cc2ccc(cc2)OCC1 (stereo unspecified) | > 100 µM | > 100 µM | > 100 µM | > 100 µM | > 100 µM | > 100 µM |  | > 100 µM | > 100 µM | > 100 µM
15 | COc1cc(C2c3cc(OC)c(OC)c(O)c3C(=O)C3CCC(=O)N32)cc(OC)c1OC (stereo unspecified) | 71.9 µM | > 100 µM | > 100 µM |  | > 100 µM | > 100 µM | > 100 µM | > 100 µM | > 100 µM | > 100 µM
16 | C[C@@]12C[C@@H](c3ccccc3O1)N1Cc3ccccc3CSC1=N2 | > 100 µM | > 100 µM | > 100 µM |  | > 100 µM | > 100 µM | > 100 µM |  | > 100 µM | > 100 µM
17 | CC(=O)N1C(Nc2cccc3nc(C)ccc23)CCN1c1ccccc1 (stereo unspecified) | > 10 µM | > 10 µM |  | > 10 µM | > 10 µM |  |  | > 10 µM | > 10 µM | > 10 µM
18 | CC1=NN(C(=O)Cc2ccccc2)C(=O)/C1=C\c1ccccc1O | > 100 µM | > 100 µM | > 100 µM | > 100 µM | > 100 µM | > 100 µM | > 100 µM | > 100 µM | > 100 µM | 
19 | OC(C1CCCCCCCCCC1)C(O)C1CCCCCCCCCC1 (stereo unspecified) | > 100 µM | > 100 µM | > 100 µM | > 100 µM | > 100 µM |  |  | > 100 µM | > 100 µM | > 100 µM
20 | OCC1OC(c2ccccc2)CC1O (stereo unspecified) | > 100 µM | > 100 µM | > 100 µM | > 100 µM | > 100 µM |  | > 100 µM | > 100 µM | > 100 µM | 
21 | COC1=CC(=O)c2nc3ccccc3c3ccnc1c23 | 26.3 µM | 13 µM | > 43.3 µM | 13.8 µM | > 48.7 µM | 48 µM |  | 13.9 µM | 2.82 µM | > 47 µM
22 | O=c1[nH]nc(Cc2ccc(Cl)cc2)n1/N=C/c1c[nH]c2ccccc12 |  | > 100 µM | > 100 µM | > 100 µM | > 100 µM | > 100 µM | > 100 µM | > 100 µM | > 100 µM | > 100 µM
23 | O=S(c1ccc(Cl)cc1)c1ccccc1C1=NCCN1 (stereo unspecified) | > 100 µM | > 100 µM | > 100 µM | > 100 µM | > 100 µM |  |  | > 100 µM | > 100 µM | > 100 µM
